The target in this assay is T1, rh beta tryptase (Homo sapiens, UniProt Q15661).
T1 construct: purchased Promega
The assay can be described thus: tryptase inhibition test (cleavage of N-p-tosyl-Gly-Pro-Lys-para-nitroaniline, p-nitroaniline measured at 405 nm). The following applies: Tris HCl buffer pH 7.4 with calcium and heparin; substrate 0.6 mM; 5 min pre-incubation, 5 min incubation at 37° C.; enzyme activity 0.91 U/ml. The assay is classed as biochemical. The procedure: The compounds according to the invention are characterised by their tryptase-inhibiting activity. This ability to inhibit tryptase was investigated using the test described below. The measurement is carried out in Tris HCl buffer (100 mM), which additionally contains calcium (5 mM) and heparin (100 mg/ml), at pH 7.4. The standard used is rh beta tryptase which may be obtained commercially from Promega, for example. The substrate used is N-p-tosyl-Gly-Pro-Lys-para-nitroaniline in a concentration of 0.6 mM. The substrate is digested with tryptase to form p-nitroaniline which can be measured at 405 nm. Usually, an incubation period of 5 minutes and an incubation temperature of 37° C. are chosen. The enzyme activity used is 0.91 U/ml. The measurements are carried out in an Autoanalyser (CobasBio) made by Hofmann LaRoche. The potential inhibitory substances are used in concentrations of 10 μM in the screening, the inhibition of the tryptase being given in percent. The IC50 is determined at over 70% inhibition (concentration at which 50% of the enzyme activity is inhibited). After 5 minutes' pre-incubation of the potential inhibitory substances, the substrate is added to start the reaction, the formation of p-nitroaniline being taken as a measurement of the enzyme activity after 5 minutes, after testing the linearity.
The data obtained after the above test has been carried out (IC50 values) can be found in Table 3.

Counter-ions that a name gives are not always drawn.

T1 sequence (Q15661 31-275): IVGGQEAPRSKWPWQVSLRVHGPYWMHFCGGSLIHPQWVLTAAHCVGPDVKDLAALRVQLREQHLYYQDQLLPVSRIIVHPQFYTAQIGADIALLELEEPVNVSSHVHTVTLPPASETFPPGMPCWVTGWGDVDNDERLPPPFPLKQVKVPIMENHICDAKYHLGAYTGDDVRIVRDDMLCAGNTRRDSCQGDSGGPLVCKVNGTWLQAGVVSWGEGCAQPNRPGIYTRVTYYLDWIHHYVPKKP

Turning to `Cn1c(CCc2ccc(C(=N)N)cc2)nc2cc(N(C3CCNC3)S(=O)(=O)c3ccccc3)ccc21` (stereo not drawn) [Example 14, 1-methyl-2-[2-(4-amidino-phenyl)-ethyl]-5-[N-(3-pyrrolidinyl)-benzenesulphonyl-amino]-benzimidazole], the IC50 was 82 nM.
For `CCCn1c(CCc2ccc(C(=N)N)cc2)nc2cc(N(CCN(CC)CC)S(=O)(=O)c3ccccc3)ccc21` [Example 18, 1-n-propyl-2-[2-(4-amidino-phenyl)-ethyl]-5-[N-(2-diethyl-aminoethyl)-benzenesulphonyl-amino]-benzimidazole], the IC50 is 292 nM.
On to `CCN(CC)CCN(c1ccc2c(c1)nc(CCc1ccc(C(=N)N)cc1)n2CCCc1ccccc1)S(=O)(=O)c1ccccc1` [Example 25, 1-(3-phenylpropyl)-2-[2-(4-amidinophenyl)-ethyl]-5-[N-(2-diethylaminoethyl)-benzene-sulphonylamino]-benzimidazole], for which the IC50 came to 412 nM.
As for `Cn1c(CCc2ccc(C(=N)N)cc2)nc2cc(N(CCN3CCOCC3)S(=O)(=O)c3ccc4ccccc4c3)ccc21` [Example 47, 1-Methyl-2-[2-(4-amidino-phenyl)-ethyl]-5-[N-(2-morpholinoethyl)-naphth-2-yl-sulphonylamino]-benzimidazole], the IC50 is 70.3 nM.
Consider `Cn1c(CCc2ccc(C(=N)N)cc2)nc2cc(N(CC(=O)N3CCNCC3)S(=O)(=O)c3ccc4ccccc4c3)ccc21` [Example 48, 1-Methyl-2-[2-(4-amidino-phenyl)-ethyl]-5-[N-(piperazin-1-yl-carbonylmethyl)-naphth-2-ylsulphonylamino]-benzimidazole], for which the IC50 amounted to 144 nM.
As for `CCN(CC)CCN(c1ccc2c(c1)nc(CCc1ccc(CN)cc1)n2C)S(=O)(=O)c1ccccc1` [Example 5, N-{2-[2-(4-aminomethyl-phenyl)-ethyl]-1-methyl-benzimidazol-5-yl}-N-diethylaminoethyl-(benzenesulphonamide)-dihydrochloride], the figure is 100 nM.
Regarding “1-Methyl-2-[2-(4-amidino- phenyl)-ethyl]-5-[N-(4′-(3″- hydroxypropyl)-piperazin-1-yl- carbonylmethyl)-naphth-2-yl- sulphonylamino]-benzimidazole [Example 51]”, the IC50 came to 35 nM.
Take `CCN(CC)CCN(c1ccc2c(c1)nc(CCc1ccc(C(=N)N)cc1)n2CCCO)S(=O)(=O)c1ccccc1` [Example 19, 1-(3-hydroxypropyl)-2-[2-(4-amidinophenyl)-ethyl]-5-[N-(2-diethylaminoethyl)-benzene-sulphonylamino]-benzimidazole]: the 50% inhibitory concentration (IC50) came to 239 nM.
As for `CCN(CC)CCN(c1ccc2c(c1)nc(CCc1ccc(C(=N)N)cc1)n2CCOC)S(=O)(=O)c1ccccc1` [Example 17, 1-(2-methoxyethyl)-2-[2-(4-amidinophenyl)-ethyl]-5-[N-(2-diethylaminoethyl)-benezene-sulphonylamino]-benzimidazole], the figure is 62 nM; as for `Cn1c(CCc2ccc(C(=N)N)cc2)nc2cc(N(Cc3ccccn3)S(=O)(=O)c3ccc4ccccc4c3)ccc21` [Example 44, 1-Methyl-2-[2-(4-amidino-phenyl)-ethyl]-5-[N-(pyrid-2-yl-methyl)-naphth-2-ylsulphonyl-amino]-benzimidazole;], 22 nM; as for `Cn1c(CCc2ccc(C(=N)N)cc2)nc2cc(N(C3CCN(Cc4ccccc4)CC3)S(=O)(=O)c3ccccc3)ccc21` [Example 13, 1-methyl-2-[2-(4-amidino-phenyl)-ethyl]-5-[N-(1-benzyl-piperidin-4-yl)-benzene-sulphonylamino]-benzimidazole], 76 nM.
Take `CCN(CC)CCN(c1ccc2c(c1)nc(CCc1ccc(C(=N)N)cc1)n2CC1CCCO1)S(=O)(=O)c1ccccc1` (stereo not drawn) [Example 27, 1-(2-tetrahydrofurylmlethyl)-2-[2-(4-amidinophenyl)-ethyl]-5-[N-(2-diethylaminoethyl)-benzenesulphonylamino]-benzimidazole]: the IC50 is 273 nM.
Regarding `CCN(CC)CCN(c1ccc2c(c1)nc(CCc1ccc(C(=N)N)cc1)n2C)S(=O)(=O)c1cccc2cnccc12` [Example 53, 1-Methyl-2-[2-(4-amidino-phenyl)-ethyl]-5-[N-(2-diethyl-aminoethyl)-isoquinol-5-yl-sulphonylamino]-benzimidazole;], the IC50 worked out at 38 nM.
`CCN(CC)CCN(c1ccc2c(c1)nc(CCc1ccc(C(=N)N)cc1)n2C)S(=O)(=O)c1ccc2ccccc2c1` [Example 35, 1-methyl-2-[2-(4-amidino-phenyl)-ethyl]-5-[N-(2-diethylaminoethyl)-naphth-2-yl-sulphonylamino]-benzimidazole]: the IC50 came to 6.6 nM.
Then `Cn1c(CCc2ccc(C(=N)N)cc2)nc2cc(N(CCN3CCCC3)S(=O)(=O)c3ccccc3)ccc21` [Example 34, 1-methyl-2-[2-(4-amidino-phenyl)-ethyl]-5-[N-(2-pyrrolidin-1-ylethyl)-benzene-sulphonylamino]-benzimidazole], with 43 nM.
Consider `CCCN(CCC)C1CCC(N(c2ccc3c(c2)nc(CCc2ccc(C(=N)N)cc2)n3C)S(=O)(=O)c2ccccc2)CC1` (stereo not drawn) [Example 7, 1-methyl-2-[2-(4-amidino-phenyl)-ethyl]-5-[N-(4-dipropyl-amino-cyclohexanyl)-benzene-sulphonyl-amino]-benzimidazole], for which the IC50 worked out at 109 nM.
In the case of `CN(C)c1ccc(CN(c2ccc3c(c2)nc(CCc2ccc(C(=N)N)cc2)n3C)S(=O)(=O)c2ccccc2)cc1` [Example 4, N-{2-[2-(4-amidinophenyl)-ethyl]-1-methyl-benzimidazol-5-yl}-N-(4-dimethylaminobenzyl)-(benzenesulphonamide)-dihydrochloride], the concentration for half-maximal inhibition (IC50) was determined as 123 nM.
Consider `CN1CCC(N(c2ccc3c(c2)nc(CCc2ccc(C(=N)N)cc2)n3C)S(=O)(=O)c2ccccc2)CC1` [Example 12, 1-methyl-2-[2-(4-amidino-phenyl)-ethyl]-5-[N-(1-methyl-piperidin-4-yl)-benzene-sulphonylamino]-benzimidazole], for which the IC50 stood at 179 nM.
As for `Cn1c(CCc2ccc(C(=N)N)cc2)nc2cc(N(Cc3cccnc3)S(=O)(=O)c3ccc4ccccc4c3)ccc21` [Example 45, 1-Methyl-2-[2-(4-amidino-phenyl)-ethyl]-5-[N-(pyrid-3-yl-methyl)-naphth-2-ylsulphonyl-amino]-benzimidazole;], the figure is 22 nM; as for `Cn1c(CCc2ccc(C(=N)N)cc2)nc2cc(N(CC(=O)N3CCN(c4ccncc4)CC3)S(=O)(=O)c3ccc4ccccc4c3)ccc21` [Example 49, 1-Methyl-2-[2-(4-amidino-phenyl)-ethyl]-5-[N-(4′-pyrid-4″- yl-piperazin-1-yl-carbonyl-methyl)-naphth-2-ylsulphonyl-amino]-benzimidazole], 186 nM; as for `Cn1c(CCc2ccc(C(=N)N)cc2)nc2cc(N(C3CCNCC3)S(=O)(=O)c3ccccc3)ccc21` [Example 11, 1-methyl-2-[2-(4-amidino-phenyl)-ethyl]-5-[N-(4-piperidinyl)-benzenesulphonyl-amino]-benzimidazole], 90 nM.
Then `CCN(CC)CCN(c1ccc2c(c1)nc(CCc1ccc(C(=N)N)cc1)n2C)S(=O)(=O)c1cccc2ccccc12` [Example 28, 1-methyl-2-[2-(4-amidino-phenyl)-ethyl]-5-[N-(2-diethyl-aminoethyl)-naphth-1-yl-sulphonylamino]-benzimidazole], with 27 nM.
As for `Cn1c(CCc2ccc(C(=N)N)cc2)nc2cc(N(CCN3CCCCC3)S(=O)(=O)c3ccccc3)ccc21` [Example 33, 1-methyl-2-[2-(4-amidino-phenyl)-ethyl]-5-[N-(2-piperidin-1-ylethyl)-benzene-sulphonylamino]-benzimidazole], the figure is 44 nM; as for `CN1CCCC1CN(c1ccc2c(c1)nc(CCc1ccc(C(=N)N)cc1)n2C)S(=O)(=O)c1ccccc1` (stereo not drawn) [Example 9, 1-methyl-2-[2-(4-amidino-phenyl)-ethyl]-5-[N-(1-methyl-pyrrolidin-2-yl-methyl)-benzene-sulphonyl-amino]-benzimidazole], 62 nM.
Turning to `CN1CCCN(C(=O)CN(c2ccc3c(c2)nc(CCc2ccc(C(=N)N)cc2)n3C)S(=O)(=O)c2ccccc2)CC1` [Example 55, 1-Methyl-2-[2-(4-amidino-phenyl)-ethyl]-5-[N-(4-methyl-1,4-diazepin-1-yl-carbonyl-methyl)-benzenesulphonyl-amino]-benzimidazole], the IC50 is 28 nM.
As for `CCOCCCn1c(CCc2ccc(C(=N)N)cc2)nc2cc(N(CCN(CC)CC)S(=O)(=O)c3ccccc3)ccc21` [Example 3, N-{2-[2-(4-amidinophenyl)-ethyl]-1-(3-ethoxy-propyl)-benzimidazol-5-yl}-N-diethylaminoethyl-(benzenesulphonamide)-dihydrochloride], the IC50 came to 132 nM.
Regarding `CN1CCC(CN(c2ccc3c(c2)nc(CCc2ccc(C(=N)N)cc2)n3C)S(=O)(=O)c2ccccc2)C1` (stereo not drawn) [Example 8, 1-methyl-2-[2-(4-amidino-phenyl)-ethyl]-5-[N-(1-methyl-pyrrolidin-3-yl-methyl)-benzene-sulphonyl-amino]-benzimidazole], the IC50 is 89 nM.

For orientation: IC50 means the midpoint of a concentration-inhibition curve.

The record behind these values is patent US6365584B1, “Arylysulphonamide-substituted benzimidazoles having tryptase-inhibiting activity” (Boehringer Ingelheim Pharma KG, priority 1999, dated 2002).
